Experimental data: patent US20080206311A1, “Sucrase Activity Inhibitor, Glucoamylase Activity Inhibitor and Food and Feed Containing the Same” (MITSUI SUGAR CO., LTD., priority 2005, published 2008)

Columns and labels:
[1] = molecular target: T1, sucrose-isomaltase complex (Rattus norvegicus, UniProt P23739); assay: Confirmation test: decomposability of the sucrose-isomaltase complex (crude enzyme) on dextrin; format: biochemical; conditions: 37° C., 20 min
T1 construct: tissue Sigma Corporation; host or cells: rat small intestine (acetone powder); papain treatment, 45-65% ammonium sulfate cut, dialysis, DEAE-Cellulose fraction with highest sucrase activity
Method: Decomposability of the sucrose-isomaltase complex on dextrin was investigated in order to confirm that decomposition of starch in the following Examples 4, 6 and 7 and Test Example 5 was attained by glucoamylase, but not by sucrose or isomaltase.
A. Extraction of a crude enzyme, sucrose-isomaltase complex Twenty grams of rat small-intestinal acetone powder (ex Sigma Corporation) were added to 180 ml of 50 mM potassium phosphate buffer (pH 7.0) and extracted for 4 hours while slowly stirred at room temperature, to which 6.5 ml of a cysteine solution (100 mg/10 ml) and 1.5 ml of a papain solution (MP Biomedicals, LLC 80 mg/2 ml) were subsequently added and the mixture was incubated at 37° C. for 1 hour to conduct a papain treatment. Then, a supernatant was recovered by centrifugal separation (8000 rpm×15 min.) and further filtered by aspiration using Toyo Filter Paper No. 2 to obtain 164 ml of a crude enzyme solution. Protein was precipitated at an ammonium sulfate concentration of 45% from the crude enzyme solution and then a supernatant was recovered by centrifugal separation (8000 rpm×15 min.). Next, ammonium sulfate was added to the supernatant up to a concentration of 65% to precipitate protein, and then the precipitate was recovered by centrifugal separation (8000 rpm×15 min.). […] The enzymatic activity was measured for each fraction and the fraction with the highest activity of a sucrose-isomaltase complex was recovered to obtain a 12 ml crude enzyme solution. The sucrose-isomaltase complex activity was determined by measuring a decomposition activity for sucrose in each fraction. […] A glucose concentration was determined using the F-kit Glucose (ex Roche) described in item D below. […]
A glucose concentration in each sample after the reaction was measured using the F-kit Glucose (ex Roche Corporation). A liberated glucose concentration (g/l) was calculated by subtracting a blank value (0.1 M phosphate buffer alone (pH 6.8)) and a concentration of glucose originally contained in the test sample (dextrin and sucrose) from the determined glucose concentration.

[2] = tested on: small-intestinal enzyme liquid; assay: Decomposition of a saccharide alone (control solution) by small-intestinal enzyme liquid; format: biochemical, rat
Method: (§1) Palatinose (trade name: Palatinose IC, ex Shin Mitsui Sugar Co., Ltd.) (test sample) was used as a sample for investigating each enzyme activity inhibitory effect. Maltose and sucrose were used as substrates for maltase and sucrose, respectively. The test sample and the substrates were dissolved in 0.1 M phosphate buffer (pH 6.8) at the concentration shown in Table 1 below to prepare test solutions (Solutions 4 and 5). Also, the test sample or the substrates were dissolved in 0.1 M phosphate buffer (pH 6.8), respectively to at the concentration shown in Table 1 below to prepare control solutions (Solution 1 for the test sample and Solutions 2 and 3 for the substrates).
(§2) Two grams of rat small-intestinal acetone powder (ex Sigma Corporation) were dissolved in 20 ml of 0.1 M phosphate buffer (pH 6.8), left standing one day at 5° C., and subsequently subjected to centrifugal separation (8000 rpm×15 min.). The supernatant was filtered through a 0.8 μm membrane filter to obtain a small-intestinal enzyme liquid. This liquid contained a mixture of enzymes present in small intestine, such as sucrose, glucoamylase, maltase, and isomaltase.
(§3) Each 0.25 ml of the small-intestinal enzyme liquid was added to each 5 ml of Solutions 1 through 5 and placed in a water bath at 37° C. to allow them to react for 60 min. while shaken at 60 strokes/min. After the reaction, they were heated in a boiling water bath for 3 min. for inactivation of the enzymes.
(§4) The glucose concentration in each solution after the reaction was measured using the F-kit Glucose (ex Roche). A liberated glucose concentration (g/l) was calculated by subtracting the blank value (0.1 M phosphate buffer alone) and the concentration of glucose originally contained in the test sample from each glucose concentration measured.
The fructose concentration was measured using the F-kit Fructose (ex Roche). The liberated fructose concentration, g/l, was obtained by subtracting the blank value (0.1 M phosphate buffer alone) from the resultant fructose concentration.
The procedures in Example 1 were repeated with the exception that palatinit, palatinose or isomaltose was used as a test sample and lactose was used as a substrate. The test samples and the substrate were dissolved in 0.1 M phosphate buffer (pH 6.8) to attain the concentration shown in Table 5 to thereby prepare three test solutions. Besides, each of the test samples or the substrate was dissolved in 0.1 M phosphate buffer (pH 6.8) to attain the concentration shown in Table 5 to thereby prepare control solutions. Each 5 ml of the aforementioned test solutions and the control solutions was subjected to the enzymatic reaction according to the same procedures as in Example 1. The glucose concentration, the fructose concentration and the galactose concentration were measured. The galactose concentration was measured using F-kit Galactose (ex Roche). The liberated galactose concentration, g/l, was calculated by subtracting the blank value (0.1 M phosphate buffer alone) from the measured galactose concentration.

[3] = molecular target: (Homo sapiens, UniProt P14410); conditions: 5-75 mM sucrose as substrate, 5 mM trehalulose as inhibitor; cited from earlier work
[4] = molecular target: T2, sucrase (Rattus norvegicus, UniProt P23739); assay: Sucrase activity inhibition with rat small-intestinal enzyme liquid, substrate sucrose; format: biochemical; conditions: 5% sucrose + 5% test sample
T2 construct: This liquid contained a mixture of enzymes present in small intestine, such as sucrose, glucoamylase, maltase, and isomaltase; tissue Sigma Corporation; host or cells: rat small intestine (acetone powder), buffer extract, unpurified
Method: as §1, §2, §3, §4
(§5) Next, each of the liberated glucose concentration was input in the following equation to obtain decomposition inhibition ratio for maltase and sucrose. In the present tests, the substrates and the inhibitors were decomposed by enzymes present in the small-intestinal enzyme liquid. However, the enzymes decomposing the substrates are different from the enzymes decomposing the inhibitors. The decomposition inhibition ratio was determined as a measure for the inhibitory effect. When the inhibitor was added, the glucose concentration was lower than that seen when the substrate alone was reacted. A higher decomposition inhibition ratio means a stronger inhibitory effect.
(§6) Decomposition inhibition ratio,%={(A+B)−(AB)}+(A+B)×100 [Equation 1]
(§7) wherein (A+B) indicates a sum of a liberated glucose concentration in the control solution containing the test sample alone after the reaction (A) and a liberated glucose concentration in the control solution containing the substrate alone after the reaction (B); and (AB) indicates a liberated glucose concentration in the test solution containing the test sample (A) and the substrate (B), after the reaction.
The procedures in Example 1 were repeated with the exception that the test solutions contained 5% of sucrose and 0.5%, 1.0%, 3.0% or 5.0% of palatinose to examine intensity of the sucrose activity inhibition. A control solution contained 5% of sucrose in 0.1 M phosphate buffer (pH 6.8).
The procedures in Example 1 were repeated with the exception that palatinit and palatinose were used as test samples and sucrose was used as a substrate. The test samples and the substrate were dissolved in 0.1 M phosphate buffer (pH 6.8) to attain the concentration shown in Table 3 to thereby prepare two test solutions. Besides, each one of the test samples or the substrate was dissolved in 0.1 M phosphate buffer (pH 6.8) to attain the concentration shown in Table 3 to thereby prepare control solutions. Each 5 ml of the aforementioned test solutions or the control solutions was subjected to the enzymatic reaction according to the same procedures as in Example 1. The glucose concentration and the fructose concentration were measured. […]

[5] = tested on: glucoamylase; assay: Glucoamylase activity inhibition with rat small-intestinal enzyme liquid, substrate soluble starch; format: biochemical; conditions: 5% soluble starch + 5% test sample
Method: as §2, §3, §4, §5, §6, §7
The procedures in Example 1 were repeated with the exception that palatinose and palatinit were used as a test sample and soluble starch was used as a substrate. The test samples and the substrate were dissolved in 0.1 M phosphate buffer (pH 6.8) to attain the concentration shown in Table 6 to thereby prepare two test solutions. Besides, each of the test samples or the substrate was dissolved in 0.1 M phosphate buffer (pH 6.8) to attain the concentration shown in Table 6 to thereby prepare control solutions. Each 5 ml of the aforementioned test solutions and the control solutions was subjected to the enzymatic reaction according to the same procedures as in Example 1 and the liberated glucose concentration and the decomposition inhibition ratio were measured.
The procedures in Example 1 were repeated with the exception that trehalulose was used as a test sample and soluble starch was used as a substrate. The test sample and the substrate were dissolved in 0.1 M phosphate buffer (pH 6.8) to attain the concentration shown in Table 9 to thereby prepare a test solution. Besides, the test sample or the substrate was dissolved in 0.1 M phosphate buffer (pH 6.8) to attain the concentration shown in Table 9 to thereby prepare control solutions. Each 5 ml of the aforementioned test solution and the control solutions was subjected to the enzymatic reaction according to the same procedures as in Example 1 and the liberated glucose concentration and the decomposition inhibition ratio were measured.
The procedures in Example 1 were repeated with the exception that trehalose was used as a test sample and soluble starch was used as a substrate. […]

[6] = crude enzyme liquid 0.125 ml, dextrin 2% (Sample 1) or sucrose 26.6 mM (Sample 3)
[7] = 5% saccharide alone, Example 3 / Test Examples 2, 3
[8] = 5% saccharide alone, Example 5 / Test Example 4

T2 sequence (P23739 whole entry): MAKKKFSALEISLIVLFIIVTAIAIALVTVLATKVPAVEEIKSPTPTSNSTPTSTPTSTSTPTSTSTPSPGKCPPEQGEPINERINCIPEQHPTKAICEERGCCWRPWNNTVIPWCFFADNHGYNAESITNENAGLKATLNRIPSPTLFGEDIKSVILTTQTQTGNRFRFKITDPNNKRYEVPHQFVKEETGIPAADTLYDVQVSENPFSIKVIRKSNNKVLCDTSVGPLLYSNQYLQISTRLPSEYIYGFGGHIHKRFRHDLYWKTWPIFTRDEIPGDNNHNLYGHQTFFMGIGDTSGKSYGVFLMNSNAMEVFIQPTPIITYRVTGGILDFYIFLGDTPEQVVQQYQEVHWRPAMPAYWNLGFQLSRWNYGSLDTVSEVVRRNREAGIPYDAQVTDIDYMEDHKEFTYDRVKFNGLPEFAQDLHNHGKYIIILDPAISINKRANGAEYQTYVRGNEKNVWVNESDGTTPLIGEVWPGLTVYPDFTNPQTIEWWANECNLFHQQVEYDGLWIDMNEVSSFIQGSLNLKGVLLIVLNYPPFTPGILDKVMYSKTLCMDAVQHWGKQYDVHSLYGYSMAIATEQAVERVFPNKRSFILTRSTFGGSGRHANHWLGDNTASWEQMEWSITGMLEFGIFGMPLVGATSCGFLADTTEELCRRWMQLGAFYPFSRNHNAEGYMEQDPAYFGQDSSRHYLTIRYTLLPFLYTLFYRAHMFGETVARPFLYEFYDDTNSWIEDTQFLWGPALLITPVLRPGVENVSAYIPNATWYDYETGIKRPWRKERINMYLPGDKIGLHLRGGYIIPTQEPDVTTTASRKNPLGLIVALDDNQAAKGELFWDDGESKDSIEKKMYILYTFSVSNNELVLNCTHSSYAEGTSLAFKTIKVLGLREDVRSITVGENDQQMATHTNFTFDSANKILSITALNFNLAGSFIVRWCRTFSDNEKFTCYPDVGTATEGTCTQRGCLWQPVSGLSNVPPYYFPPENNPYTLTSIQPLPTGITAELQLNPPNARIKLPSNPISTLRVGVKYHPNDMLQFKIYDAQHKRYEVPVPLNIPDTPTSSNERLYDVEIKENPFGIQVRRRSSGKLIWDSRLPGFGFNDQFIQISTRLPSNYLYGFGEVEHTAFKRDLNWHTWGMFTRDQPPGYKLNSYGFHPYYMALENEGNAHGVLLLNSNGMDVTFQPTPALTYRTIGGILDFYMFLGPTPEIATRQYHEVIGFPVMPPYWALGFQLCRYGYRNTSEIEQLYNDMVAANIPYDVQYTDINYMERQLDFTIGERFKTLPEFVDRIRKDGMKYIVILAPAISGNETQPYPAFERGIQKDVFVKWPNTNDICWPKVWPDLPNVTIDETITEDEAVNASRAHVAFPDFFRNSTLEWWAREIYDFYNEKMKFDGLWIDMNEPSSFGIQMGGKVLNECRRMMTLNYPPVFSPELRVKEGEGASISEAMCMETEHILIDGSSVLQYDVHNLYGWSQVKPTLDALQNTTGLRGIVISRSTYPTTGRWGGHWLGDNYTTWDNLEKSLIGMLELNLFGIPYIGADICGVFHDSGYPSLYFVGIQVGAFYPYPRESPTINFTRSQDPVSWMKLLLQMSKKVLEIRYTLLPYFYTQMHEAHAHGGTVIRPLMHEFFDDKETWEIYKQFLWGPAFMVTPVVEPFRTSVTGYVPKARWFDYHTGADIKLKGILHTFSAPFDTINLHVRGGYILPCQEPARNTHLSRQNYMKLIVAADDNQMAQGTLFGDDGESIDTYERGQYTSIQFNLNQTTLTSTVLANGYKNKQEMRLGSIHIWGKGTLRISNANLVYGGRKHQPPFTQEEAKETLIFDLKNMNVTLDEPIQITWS
T1 sequence (P23739 33-1841 limits assumed, one chain of several): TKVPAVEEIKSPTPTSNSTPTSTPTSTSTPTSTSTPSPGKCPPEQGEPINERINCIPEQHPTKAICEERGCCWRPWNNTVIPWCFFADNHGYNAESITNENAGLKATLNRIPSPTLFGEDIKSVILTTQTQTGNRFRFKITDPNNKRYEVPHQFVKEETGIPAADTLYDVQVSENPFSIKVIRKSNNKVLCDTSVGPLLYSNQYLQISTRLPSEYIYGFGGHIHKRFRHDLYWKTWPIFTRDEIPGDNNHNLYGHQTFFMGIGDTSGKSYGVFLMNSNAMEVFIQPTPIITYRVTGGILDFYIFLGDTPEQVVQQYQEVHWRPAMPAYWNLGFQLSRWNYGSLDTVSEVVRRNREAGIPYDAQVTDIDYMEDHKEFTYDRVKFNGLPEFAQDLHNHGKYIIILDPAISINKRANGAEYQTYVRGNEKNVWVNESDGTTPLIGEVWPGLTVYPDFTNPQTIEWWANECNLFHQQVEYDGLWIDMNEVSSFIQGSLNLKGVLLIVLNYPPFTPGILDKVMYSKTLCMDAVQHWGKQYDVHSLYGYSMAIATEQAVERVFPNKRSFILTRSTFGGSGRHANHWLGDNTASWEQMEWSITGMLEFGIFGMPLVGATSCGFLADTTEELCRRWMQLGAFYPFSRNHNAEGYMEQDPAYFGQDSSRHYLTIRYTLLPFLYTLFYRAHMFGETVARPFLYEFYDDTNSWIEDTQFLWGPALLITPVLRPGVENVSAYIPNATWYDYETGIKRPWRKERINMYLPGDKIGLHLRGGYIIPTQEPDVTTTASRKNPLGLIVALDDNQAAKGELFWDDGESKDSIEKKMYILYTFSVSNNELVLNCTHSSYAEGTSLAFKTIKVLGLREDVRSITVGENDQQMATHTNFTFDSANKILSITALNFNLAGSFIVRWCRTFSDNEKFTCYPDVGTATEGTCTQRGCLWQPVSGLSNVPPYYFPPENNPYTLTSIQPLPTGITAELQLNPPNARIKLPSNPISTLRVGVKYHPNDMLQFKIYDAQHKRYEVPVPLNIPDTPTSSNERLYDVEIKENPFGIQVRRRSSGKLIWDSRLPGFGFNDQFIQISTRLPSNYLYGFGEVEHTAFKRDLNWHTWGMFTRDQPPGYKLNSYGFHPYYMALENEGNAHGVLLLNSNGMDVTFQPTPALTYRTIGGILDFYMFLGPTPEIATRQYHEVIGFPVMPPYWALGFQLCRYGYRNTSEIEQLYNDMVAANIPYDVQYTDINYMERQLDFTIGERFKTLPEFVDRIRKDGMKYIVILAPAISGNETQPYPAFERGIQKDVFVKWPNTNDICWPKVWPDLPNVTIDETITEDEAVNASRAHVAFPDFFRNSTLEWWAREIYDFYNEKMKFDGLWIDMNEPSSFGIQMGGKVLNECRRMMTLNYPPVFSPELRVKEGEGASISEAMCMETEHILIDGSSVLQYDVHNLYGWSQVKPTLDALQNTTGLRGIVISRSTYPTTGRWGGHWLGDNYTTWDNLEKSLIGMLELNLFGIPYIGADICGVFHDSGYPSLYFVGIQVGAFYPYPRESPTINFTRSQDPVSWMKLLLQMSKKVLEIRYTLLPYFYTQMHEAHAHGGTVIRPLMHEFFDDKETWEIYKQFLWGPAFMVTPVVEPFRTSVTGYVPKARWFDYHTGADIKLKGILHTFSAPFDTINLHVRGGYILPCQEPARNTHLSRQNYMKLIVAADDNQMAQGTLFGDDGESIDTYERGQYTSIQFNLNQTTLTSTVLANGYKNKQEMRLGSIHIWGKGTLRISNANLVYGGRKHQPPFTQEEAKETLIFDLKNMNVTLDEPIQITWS

Row | Compound | Mean amount of produced glucose [1, 6] | Liberated glucose concentration ([2]; 5% saccharide alone, 37° C., 60 min, pH 6.8, Example 1 / Test Example 1) | Liberated fructose concentration [2, 7] | Liberated glucose concentration [2, 7] | Liberated glucose concentration [2, 8] | Total concentration of liberated monosaccharides (glucose + fructose) ([2]; control solution with sucrose only, 5%) | Mean amount of produced glucose ([1]; crude enzyme liquid 0.25 ml, dextrin 2% (Sample 2)) | Inhibitory effect on the sucrase activity (reported) [3] | Sucrase activity inhibitory effect (in words) [4] | Decomposition inhibition ratio, %, against sucrase ([4]; Example 5 / Test Example 4) | Liberated glucose concentration ([4]; Example 5 / Test Example 4) | Liberated glucose concentration ([2]; 5% saccharide alone, Example 6 / Test Example 5) | Glucoamylase activity inhibitory effect (in words) [5] | Decomposition inhibition ratio, %, against glucoamylase ([5]; Example 6 / Test Example 5) | Liberated glucose concentration ([5]; Example 6 / Test Example 5)
1 | OC[C@H]1O[C@@](CO)(O[C@H]2O[C@H](CO)[C@@H](O)[C@H](O)[C@H]2O)[C@@H](O)[C@@H]1O [sucrose] | 0.474 g/L | 0.959 ± 0.022 g/L | 1.09 g/L | 1.01 g/L | 1.628 g/L | 2.10 g/L | – | – | – | – | – | – | – | – | –
2 | dextrin | 0.057 g/L | – | – | – | – | – | 0.088 g/L | – | – | – | – | – | – | – | –
3 | trehalulose | – | – | – | – | 0.558 g/L | – | – | no inhibitory effect | has the sucrose activity inhibitory effect | 36% | 1.403 g/L | 0.411 g/L | has a glucoamylase activity inhibitory effect | 28% | 2.028 g/L
